Test results as given in paper PMC13112199 (Nature nanotechnology, 2025).
Entries after “also recorded” stand apart in the source; their conditions may differ.

How the values were obtained:
[1] = UPLC in vitro release assay of small molecules from MDP hydrogels; assay type: physicochemical
[2] = female, BALB/c, mouse, in vivo, sc
[3] = Bortezomib pharmacokinetics after subcutaneous injection; conditions: 175 ng sc, alone without hydrogel
[4] = Boronate ester association; assay type: physicochemical; conditions: SHA vs catechol, across boronic acids
[5] = UV–vis stability of dynamic covalent bonding motifs in solution; conditions: pH 7.4 PBS, over 15 days
blood glucose levels = test: Mouse type 1 diabetes model, blood glucose control; assay type: in vivo; conditions: 3 IU sc without a hydrogel, diabetic mice
[6] = Stability of ganfeborole loaded in hydrogels quantified by UPLC; assay type: physicochemical
M. tuberculosis H37Rv = test: Mouse model of acute tuberculosis, lung CFU counts; assay type: in vivo, Mycobacterium tuberculosis; conditions: for reduction of colony-forming units in lungs: 600 μg single sc injection without hydrogel; for reduction in bacterial burden compared with vehicle control: ten oral doses of 60 μg
[7] = high doses; cited from earlier work
[8] = Ganfeborole pharmacokinetics after subcutaneous injection
[9] = from Cat-K2 hydrogel, first 2 h
[10] = from nitroCat-K2 hydrogel, 24 h
[11] = from unmodified K2 hydrogel, first 2 h, 10 mg ml^-1 peptide, PBS, 37 °C
[12] = 600 μg in SHA-E2, non-compartmental analysis
[13] = 600 μg in SHA-K2 vs drug alone, non-compartmental analysis

**Q.** What does the source list for `CC(C)C[C@H](NC(=O)CNC(=O)c1cc(Cl)ccc1Cl)B(O)O` [ixazomib]?
**A.** drug released in vitro [1, 9]: > 57.1%; drug released in vitro ([1]; from SHA-K2 hydrogel, 2 h): 15–25%; drug released in vitro ([1]; from SHA-K2 hydrogel, 24 h): 50–70%; drug released in vitro ([1]; from nitroCat-K2 hydrogel, 2 h): 15–25%; drug released in vitro [1, 10]: 50–70%; drug released in vitro [1, 11]: > 82.3%

**Q.** What does the source list for `CC(C)C[C@H](NC(=O)[C@H](Cc1ccccc1)NC(=O)c1cnccn1)B(O)O` [bortezomib]?
**A.** drug released in vitro [1, 9]: > 57.1%; glucose dependence of in vitro release ([1]; from SHA-K2, physiologically relevant glucose range): independent of glucose concentration; drug released in vitro ([1]; from SHA-K2 hydrogel, 2 h): 15–25%; drug released in vitro ([1]; from SHA-K2 hydrogel, 24 h): 50–70%; drug released in vitro ([1]; from nitroCat-K2 hydrogel, 2 h): 15–25%; drug released in vitro [1, 10]: 50–70%; drug released in vitro [1, 11]: > 82.3%; blood concentration at 336 h relative to peak-matched 175 ng control [2]: 2.7 fold; maximum concentration [3]: 21.2 ± 3.1 ng/mL

**Q.** What does the source list for `O=C(NO)c1ccccc1O` [SHA, salicylhydroxamic acid]?
**A.** boronate ester association constant relative to catechol association constants [4]: 6.5- to 9.6 fold; stability in solution by UV–vis [5]: excellent stability over 15 days in solution

**Q.** With “insulin: commercially purchased unmodified insulin” as the compound, how does the “time until mice became hyperglycemic again” value (blood glucose levels) read?
**A.** ≤ 4 h

**Q.** What about the “time until mice became hyperglycemic again” value (blood glucose levels; listed as unmodified insulin) of the same compound?
**A.** less than 4 h

**Q.** For `COCCOc1nc(N)c2[nH]c(=O)n(Cc3ccc(C(=O)O)cc3)c2n1` [Compound 1V209], which “in vitro release kinetics from SABER hydrogels” value ([1]; drug without BA, SABER hydrogels vs K2) is on record?
**A.** no altered release kinetics were observed

**Q.** For `NC[C@H]1OB(O)c2c(OCCO)ccc(Cl)c21` [ganfeborole], which “in vitro release rate” value ([1]; from K2 hydrogel) is on record?
**A.** similarly rapid release rates

**Q.** What about the “drug released in vitro” value ([1]; from K2 hydrogel, 30 min) of the same compound?
**A.** 59.0 ± 1.1%

**Q.** What about the “in vitro release” value ([1]; from SHA-E2 hydrogel, loaded at 0.5 mg ml^-1) of the same compound?
**A.** significantly slowed the release; also recorded: performed similarly to SHA-K2

**Q.** And the “drug released in vitro” value ([1]; from SHA-K2 hydrogel, 24 h)?
**A.** 48.7 ± 2.5%

**Q.** And the “in vitro release rate” value ([1]; from SHA-K2 hydrogel, compared with K2)?
**A.** significantly extend the release

**Q.** What about the “in vitro release rate” value ([1]; from nitroCat-K2 hydrogel) of the same compound?
**A.** similarly rapid release rates

**Q.** What about the “stability of drug loaded in hydrogel” value ([6]; in Cat-K2) of the same compound?
**A.** rapid oxidative degradation; also recorded: rapidly degrades the compound

**Q.** What about the “stability of drug loaded in hydrogel” value ([6]; in K2, nitroCat-K2 and SHA-K2 (all hydrogels except Cat-K2), two weeks) of the same compound?
**A.** majority of the drug remains stable over the course of two weeks

**Q.** And the “bacterial burden reduction compared with oral dosing” value (M. tuberculosis H37Rv; 600 μg single injection in SHA-E2 vs ten oral doses)?
**A.** ~10 fold

**Q.** What about the “reduction in bacterial lung burden compared with vehicle control” value (M. tuberculosis H37Rv; 600 μg single sc injection in SHA-E2, 7 days) of the same compound?
**A.** 2.58 log10

**Q.** What about the “reduction in bacterial lung burden compared with vehicle control” value (M. tuberculosis H37Rv; 600 μg single sc injection in SHA-E2, 14 days) of the same compound?
**A.** 4.12 log10

**Q.** What about the “reduction of colony-forming units in lungs” value (M. tuberculosis H37Rv; 7 days) of the same compound?
**A.** 0.95 log10

**Q.** And the “reduction of colony-forming units in lungs” value (M. tuberculosis H37Rv; 14 days)?
**A.** 1.55 log10

**Q.** What about the “reduction in bacterial burden compared with vehicle control” value (M. tuberculosis H37Rv; 7 days) of the same compound?
**A.** 1.67 log10

**Q.** And the “reduction in bacterial burden compared with vehicle control” value (M. tuberculosis H37Rv; 14 days)?
**A.** 3.32 log10

**Q.** And the tolerability in humans [7]?
**A.** well tolerated in humans at high doses

**Q.** And the “in vivo release” value ([8]; 75 μg sc in 50 μl of 10 mg ml^-1 K2)?
**A.** unable to prolong drug release in vivo

**Q.** And the “duration of concentration above the EC50 relative to other groups” value ([8]; 75 μg sc in 50 μl of 10 mg ml^-1 SHA-K2, EC50 ref 51)?
**A.** over 4 fold

**Q.** And the “in vivo release” value ([8]; 75 μg sc in 50 μl of 10 mg ml^-1 nitroCat-K2)?
**A.** unable to prolong drug release in vivo

**Q.** And the “in vivo release compared with unmodified E2 hydrogel” value ([8]; 600 μg in 200 μl of 20 mg ml^-1 SHA-E2)?
**A.** prolongs drug release

**Q.** And the “enhancement of half-life compared with ganfeborole alone” value ([8]; 600 μg in SHA-E2)?
**A.** over 10 fold

**Q.** And the “effect on Cmax” value [8, 12]?
**A.** reduces the maximum circulating concentration

**Q.** What about the “effect on drug exposure (AUC)” value [8, 12] of the same compound?
**A.** improves drug exposure

**Q.** What about the “effect on Cmax” value ([8]; 600 μg in SHA-K2 vs drug alone) of the same compound?
**A.** reducing the maximum drug concentration

**Q.** What about the “improvement of AUC” value [8, 13] of the same compound?
**A.** 2.8 fold

**Q.** And the increase of half-life [8, 13]?
**A.** 6.5 fold

**Q.** For `OB1OCc2cc(F)ccc21` [tavaborole], which “drug released in vitro” value ([1]; from Cat-K2 hydrogel, 24 h) is on record?
**A.** 80.0 ± 4.7%

**Q.** And the “drug released in vitro” value ([1]; from SHA-K2 hydrogel, 24 h)?
**A.** 49.1 ± 0.3%

**Q.** And the “drug released in vitro” value [1, 10]?
**A.** 64.8 ± 0.9%
